SMILES strings stand for the structures.

The experiment in a line: pharmacological and pharmacodynamic studies. The conditions noted are these: no method or data given.

`COc1ccc2cccc(CCNC(C)=O)c2c1` [agomelatine crystal, N-[2-(7-methoxy-1-naphthyl)-ethyl]acetamide]: the “therapeutic effects for central neural system and microcirculation” value is “good therapeutic effects for central neural system and microcirculation”.

The values are drawn from patent US9029420B2, “Agomelatine and pharmaceutical compositions thereof” (Tianjin Taipu Pharmaceutical Science & Technology …, priority 2009, dated 2015).
